This is an account of results in paper PMC6395927, “Rufomycin Targets ClpC1 Proteolysis in Mycobacterium tuberculosis and M. abscessus” (Antimicrobial Agents and Chemotherapy, 2019).

Converted amounts (≈) assume the structure as drawn. Numbered stars: 1 amine (or outer) side, 2 acyl side, 3 side chain; on linkers, the order of the positions; unused ones are H or OH. Bridge positions count the residues as written; N and C are the ends. Square brackets hold non-standard residues; d marks the D form. Peptide text beside a SMILES is read from it. * marks the point of attachment. ξ: configuration not given here. NMeTrp(4-OMe) = CN[CH](Cc1c[nH]c2cccc(OC)c12)C(=O)O; X1 = O=C(C(N[*:1])C(O)c1ccccc1)[*:2]; NMeI = CC[CH](C)[CH](NC)C(=O)O; ξNMe2Val = CC(C)C(C(=O)*)N(C)C; NMeT = CN[CH](C(=O)O)[CH](C)O; NMeL = CN[CH](CC(C)C)C(=O)O; NMeV = CN[CH](C(=O)O)C(C)C

One data set concerns M. kansasii (ATCC 12478). In words: microbe, parasite or virus in culture. The following applies: Mycobacterium kansasii, ATCC12478; M. kansasii; read-out: MIC. Type of data set: cell-based.
A further data set deals with ClpC1 (Mycobacterium tuberculosis, UniProt P9WPC9). Type of data set: biochemical, M. tuberculosis.
For data set [1] the following is noted: ECU, micelle formulation; cited from earlier work.
The subject of the next data set is M. avium (ATCC 15769). Put plainly: microbe, parasite or virus in culture. Type of data set: cell-based. The settings on record: Mycobacterium avium, ATCC15769; M. avium; read-out: MIC.
For data set [2], the system named is nonreplicating cultures of M. tuberculosis. In words: microbe, parasite or virus in culture. Type of data set: cell-based, Mycobacterium tuberculosis. The following applies: Mycobacterium tuberculosis.
Another data set addresses ClpC1/P1/P2 complex (Mycobacterium tuberculosis, UniProt P9WPC9). In kind it is biochemical, M. tuberculosis.
The test system of the next data set is M. chelonae (ATCC 35752). In words: microbe, parasite or virus in culture. In kind it is cell-based, Mycobacterium chelonae. The following applies: Mycobacteroides chelonae, ATCC35752; M. chelonae; read-out: MIC.
The subject of data set [3] is M. tuberculosis strain H37Rv (ATCC 27294). Put plainly: microbe, parasite or virus in culture. The following applies: Mycobacterium tuberculosis. In kind it is cell-based, Mycobacterium tuberculosis.
In data set [4] the test system is M. abscessus (ATCC 19977). Put plainly: microbe, parasite or virus in culture. Type of data set: cell-based, Mycobacterium abscessus. The settings on record: Mycobacteroides abscessus, ATCC19977, M. abscessus; read-out: MIC.
The test system of data set [5] is M. tuberculosis 5 global clade representatives. In words: microbe, parasite or virus in culture. Type of data set: cell-based. The settings on record: Mycobacterium tuberculosis, read-out: MICs.
The test system of the next data set is M. tuberculosis. Put plainly: microbe, parasite or virus in culture. The following applies: Mycobacterium tuberculosis, read-out: MBC (minimum bactericidal concentration). In kind it is cell-based, Mycobacterium tuberculosis.
Data set [6] has as its system M. smegmatis (ATCC 700084). In words: microbe, parasite or virus in culture. Type of data set: cell-based. The settings on record: Mycolicibacterium smegmatis, ATCC700084; M. smegmatis; read-out: MIC.
In the next data set the test system is M. bovis (ATCC 35734). In words: microbe, parasite or virus in culture. In kind it is cell-based. The following applies: Mycobacterium tuberculosis variant bovis, ATCC35734.
Data set [7] concerns Candida albicans (ATCC 10231). In words: MIC against nonmycobacteria (OD570). The settings on record: ATCC10231, C. albicans. Type of data set: cell-based. The text has this: (§1) Standard compounds used were ampicillin (AMP) and gentamicin (GEN). […] Amphotericin B (AmphB) and ketoconazole (KETO) were used as standard compounds.
Data set [8] has as its system Escherichia coli (ATCC 25922). Put plainly: MIC against nonmycobacteria (OD570). In kind it is cell-based. The following applies: ATCC25922, E. coli.
Description: as §1

The subject of data set [9] is Staphylococcus aureus (ATCC 29213). Put plainly: MIC against nonmycobacteria (OD570). Type of data set: cell-based. The following applies: ATCC29213, S. aureus.
Description: as §1

For another data set, the system named is M. marinum (ATCC 927). In words: microbe, parasite or virus in culture. In kind it is cell-based. The settings on record: Mycobacterium marinum, ATCC927; M. marinum; read-out: MIC.

Chain of ClpC1 (P9WPC9 whole entry): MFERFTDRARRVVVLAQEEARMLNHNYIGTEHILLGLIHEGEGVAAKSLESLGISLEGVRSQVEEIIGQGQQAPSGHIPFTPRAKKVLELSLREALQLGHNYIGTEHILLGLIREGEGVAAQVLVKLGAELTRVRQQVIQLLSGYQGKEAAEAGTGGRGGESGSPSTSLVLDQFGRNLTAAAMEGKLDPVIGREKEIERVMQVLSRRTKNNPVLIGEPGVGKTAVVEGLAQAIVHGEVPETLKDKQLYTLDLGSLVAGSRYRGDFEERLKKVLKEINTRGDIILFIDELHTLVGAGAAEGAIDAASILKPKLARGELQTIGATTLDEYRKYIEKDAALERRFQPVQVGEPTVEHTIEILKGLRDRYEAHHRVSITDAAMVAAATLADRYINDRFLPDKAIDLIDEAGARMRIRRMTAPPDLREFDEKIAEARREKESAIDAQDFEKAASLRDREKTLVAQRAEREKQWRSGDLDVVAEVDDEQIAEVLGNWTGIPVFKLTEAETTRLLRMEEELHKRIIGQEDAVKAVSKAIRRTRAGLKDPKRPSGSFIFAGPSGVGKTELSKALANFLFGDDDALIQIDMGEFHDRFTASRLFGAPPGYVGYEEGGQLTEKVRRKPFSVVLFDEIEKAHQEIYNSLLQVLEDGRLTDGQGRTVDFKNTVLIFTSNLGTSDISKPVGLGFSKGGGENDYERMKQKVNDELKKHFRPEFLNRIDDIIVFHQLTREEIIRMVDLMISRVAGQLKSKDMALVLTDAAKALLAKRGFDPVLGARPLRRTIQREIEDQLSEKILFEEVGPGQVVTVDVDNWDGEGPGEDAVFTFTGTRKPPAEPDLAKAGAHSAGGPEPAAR
Chain of ClpC1/P1/P2 complex (P9WPC9 whole entry, one chain of several): as the sequence (P9WPC9 whole entry) above

With `CCC(C)C(C(=O)NC1C(=O)N(C)C(C(C)O)C(=O)NC(C(C)C)C(=O)N(C)C(CC(C)C)C(=O)NC(C(C)C)C(=O)N(C)C(C(C)C)C(=O)N(C)C(Cc2c[nH]c3cccc(OC)c23)C(=O)NC(C(C)C)C(=O)NC(C(O)c2ccccc2)C(=O)NC(C(C)C)C(=O)OC1C)N(C)C(=O)C(NC(=O)C(C(C)C)N(C)C)C(C)C` (centres unmarked) [ECU, ecumicin] (ξNMe2Val-V[NMeI]T[NMeT]V[NMeL]V[NMeV][NMeTrp(4-OMe)]V[X1]V; ester 3-C; configuration not given here), the MIC is 4 µM (≈ 6.4 µg/mL) with M. kansasii (ATCC 12478); 0.35 µM (≈ 0.56 µg/mL) in the data set with M. avium (ATCC 15769); 0.97 µM (≈ 1.55 µg/mL) with M. chelonae (ATCC 35752); 0.16 µM (≈ 0.256 µg/mL) in data set [3]; over 63 µM in data set [4]; 0.13 to 0.38 µM (≈ 0.208 to 0.608 µg/mL) in [5]. Moreover, the MIC was 1.7 µM (≈ 2.72 µg/mL) in data set [6]; under 0.2 µM in the data set on M. bovis (ATCC 35734); over 32 µM in data set [7]; over 32 µM in data set [8]; over 32 µM in [9]; 0.95 µM (≈ 1.52 µg/mL) with M. marinum (ATCC 927). Further, at ClpC1, the “effect on ClpC1 ATPase activity” value is on record as “stimulates the ATPase activity”. For the same compound, the terminal half-life in data set [1] is recorded as 3 h. Besides, the results for the MBC (in data set [2]; in the data set with M. tuberculosis) were 1.5 µM (≈ 2.4 µg/mL) and 0.34 µM (≈ 0.544 µg/mL), respectively. For the same compound, the “effect on proteolytic activity of ClpC1/P1/P2 (FITC-casein degradation)” value at ClpC1/P1/P2 complex is reported as “inhibits ClpC1 proteolysis”.
